What follows are molecules tested against V1 receptor (Rattus norvegicus, UniProt P30560) (assay: biochemical). Settings: not given.
Assay type: binding

Chain of V1 receptor (P30560 whole entry): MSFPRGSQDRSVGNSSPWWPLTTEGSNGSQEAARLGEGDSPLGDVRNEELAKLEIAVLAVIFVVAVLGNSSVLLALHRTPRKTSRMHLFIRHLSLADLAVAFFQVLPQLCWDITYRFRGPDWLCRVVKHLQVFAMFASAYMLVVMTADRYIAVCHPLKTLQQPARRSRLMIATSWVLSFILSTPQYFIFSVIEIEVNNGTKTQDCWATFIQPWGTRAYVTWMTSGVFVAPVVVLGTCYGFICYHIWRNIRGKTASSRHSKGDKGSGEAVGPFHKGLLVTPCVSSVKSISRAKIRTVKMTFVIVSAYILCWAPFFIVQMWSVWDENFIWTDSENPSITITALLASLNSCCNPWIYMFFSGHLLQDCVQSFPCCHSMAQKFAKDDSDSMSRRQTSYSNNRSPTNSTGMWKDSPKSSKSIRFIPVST

Molecule	IC50 [µM]
NC(=O)OCCCCOc1ccc(C(=O)N2CCC(N3C(=O)CCc4ccccc43)CC2)cc1 [Example 38, 1-{1-[4-(4-Carbamoyloxybutoxy)benzoyl]-4-piperidinyl}-3,4-dihydrocarbostyril]	0.27
CN1CCN(CC(O)CCCCOc2ccc(C(=O)N3CCC(N4C(=O)CCc5ccccc54)CC3)cc2)CC1 (stereo not drawn) [Example 178, 1-{1-[4-(5-Hydroxy-6-(4-methyl-1-piperazinyl)hexyloxy]benzoyl]-4-piperidinyl}-3,4-dihydrocarbostyril]	0.045
NC(=O)CC[C@H](NC(=O)CCCCCOc1ccc(C(=O)N2CCC(N3C(=O)CCc4ccccc43)CC2)cc1)C(N)=O [Example 150, 1-{1-[4-(5-[1-(S),3-Dicarbamoyl]propylaminocarbonylpentyloxy)benzoyl]-4-piperidinyl}-3,4-dihydrocarbostyril]	0.096
CN(C)CCCNC(=O)CCCCCOc1ccc(C(=O)N2CCC(N3C(=O)CCc4ccccc43)CC2)cc1 [Example 197, 1-(1-[4-(5-(3-Dimethylaminopropyl)aminocarbonylpentyloxy)benzoyl]-4-piperidinyl}-3,4-dihydrocarbostyril]	0.035
CC(=O)OC1CCC(C(=O)NCCCCCOc2ccc(C(=O)N3CCC(N4C(=O)CCc5ccccc54)CC3)cc2)CC1OC(C)=O (stereo not drawn) [Example 261, 1-{1-(4-[5-(3,4-Diacetoxycyclohexylcarbonyl)aminopentyloxy]benzoyl)-4-piperidinyl}-3,4-dihydrocarbostyril]	0.12
O=C(CCCCCOc1ccc(C(=O)N2CCC(N3C(=O)CCc4ccccc43)CC2)cc1)N1CCNCC1 [Example 270, 1-{1-(4-[5-(1-Piperazinylcarbonyl)pentyloxy]benzoyl)-4-piperidinyl}-3,4-dihydrocarbostyril]	0.044
O=C(c1ccc(OCCCCCS(=O)(=O)c2ccccn2)cc1)N1CCC(N2C(=O)CCc3ccccc32)CC1 [Example 287, 1-{1-(4-[5-(2-Pyridylsulfonyl)pentyloxy]benzoyl)-4-piperidinyl}-3,4-dihydrocarbostyril]	0.1
CCNc1cc(OC)ccc1C(=O)N1CCC(N2C(=O)CCc3ccccc32)CC1 [Example 56, 1-[1-(2-Ethylamino-4-methoxybenzoyl)-4-piperidinyl]-3,4-dihydrocarbostyril]	0.33
CCN(CC)CCCCCCCOc1ccc(C(=O)N2CCC(N3C(=O)CCc4ccccc43)CC2)cc1 [Example 268, 1-{1-(4-[7-(Diethylamino)heptyloxy]benzoyl)-4-piperidinyl}-3,4-dihydrocarbostyril]	0.027
NC(=O)OCCCOc1ccc(C(=O)N2CCC(N3C(=O)CCc4ccccc43)CC2)cc1 [Example 35, 1-{1-[4-(3-Carbamoyloxypropoxy)benzoyl]-4-piperidinyl}-3,4-dihydrocarbostyril]	0.15
COc1ccc(C(=O)N2CCC(N3C(=O)CCc4ccccc43)CC2)c(N2CCOC2=O)c1 [Example 51, 1-{1-[2-(2-Oxooxazolydine-3-yl)-4-methoxybenzoyl]-4-piperidinyl}-3,4-dihydrocarbostyril]	0.49
O=C(OCCCOc1ccc(C(=O)N2CCC(N3C(=O)CCc4ccccc43)CC2)cc1)c1ccccc1 [Example 94, 1-{1-[4-(3-Benzoyloxypropoxy)benzoyl]-4-piperidinyl}-3,4-dihydrocarbostyril]	0.63
COC(=O)[C@H](C)NC(=O)CCCOc1ccc(C(=O)N2CCC(N3C(=O)CCc4ccccc43)CC2)cc1 [Example 11, Methyl N-[4-{4-[4-(1,2,3,4-tetrahydro-2-oxo-1-quinolyl)-1-piperidinylcarbonyl]phenoxy}]butanoyl-L-alanate]	0.3
COc1ccc(C(=O)N2CCC(N3C(=O)CCc4ccc(C)cc43)CC2)c(OC)c1 [Example 81, 7-Methyl-1-[1-(2,4-dimethoxybenzoyl)-4-piperidinyl]-3,4-dihydrocarbostyril]	0.21
COc1ccc(C(=O)N2CCC(N3C(=O)CCc4ccccc43)CC2)c(NC(=O)OCc2ccccc2)c1 [Example 103, 1-[1-(4-Methoxy-2-benzyloxycarbonylaminobenzoyl)-4-piperidinyl]-3,4-dihydrocarbostyril]	0.7
CC(=O)N1CCC(C(=O)NCCCCOc2ccc(C(=O)N3CCC(N4C(=O)CCc5ccccc54)CC3)cc2)CC1 [Example 232, 1-{1-(4-[4-(1-Acetyl-4-piperidinylcarbonylamino)butoxy]benzoyl)-4-piperidinyl)-3,4-dihydrocarbostyril]	0.12
COc1ccc(C(=O)N2CCC(N3C(=O)CCc4ccccc43)CC2)c(OCCO)c1 [Example 68, 1-{1-[2-(2-Hydroxyethoxy)-4-methoxybenzoyl]-4-piperidinyl}-3,4-dihydrocarbostyril]	0.36

Molecule	IC50 [µM]
O=C(CN1CCCC1)NCCCCCOc1ccc(C(=O)N2CCC(N3C(=O)CCc4ccccc43)CC2)cc1 [Example 252, 1-{1-(4-[5-(2-(1-Pyrrolidinyl)acetylamino)pentyloxy]benzoyl)-4-piperidinyl}-3,4-dihydrocarbostyril]	0.086
CN1CCN(C(=O)CCCCCOc2ccc(C(=O)N3CCC(N4C(=O)CCc5ccccc54)CC3)cc2)CC1 [Example 272, 1-{1-(4-[5-(4-Methyl-1-piperazinylcarbonyl)pentyloxy]benzoyl)-4-piperidinyl}-3,4-dihydrocarbostyril]	0.038
CC(=O)Nc1ccc(S(=O)(=O)CCCCCOc2ccc(C(=O)N3CCC(N4C(=O)CCc5ccccc54)CC3)cc2)cc1 [Example 289, 1-{1-(4-[5-(4-Acetylaminophenylsulfonyl)pentyloxy]benzoyl)-4-piperidinyl}-3,4-dihydrocarbostyril]	0.1
O=C(c1ccc(OCCCN2CCN(Cc3ccccc3)CC2)cc1)N1CCC(N2C(=O)CCc3ccccc32)CC1 [Example 133, 1-[1-{4-[3-(4-Benzyl-1-piperazinyl)propoxy]benzoyl}-4-piperidinyl]-3,4-dihydrocarbostyril.dioxalate]	0.33
CC(=O)OCCCOc1ccc(C(=O)N2CCC(N3C(=O)CCc4ccccc43)CC2)cc1 [Example 33, 1-{1-[4-(3-Acetoxypropoxy)benzoyl]-4-piperidinyl}-3,4-dihydrocarbostyril]	0.45
CCN(CC)CC(O)CCCCOc1ccc(C(=O)N2CCC(N3C(=O)CCc4ccccc43)CC2)cc1 (stereo not drawn) [Example 144, 1-{1-[4-(6-Diethylamino-5-hydroxyhexyloxy)benzoyl]-4-piperidinyl}-3,4-dihydrocarbostyril]	0.022
NC(=O)C1CCN(C(=O)CCCCCOc2ccc(C(=O)N3CCC(N4C(=O)CCc5ccccc54)CC3)cc2)CC1 [Example 275, 1-{1-(4-[5-(4-Carbamoyl-1-piperidinylcarbonyl)pentyloxy]benzoyl)-4-piperidinyl}-3,4-dihydrocarbostyril]	0.046
Cc1ccc(S(=O)(=O)NCCCOc2ccc(C(=O)N3CCC(N4C(=O)CCc5ccccc54)CC3)cc2)cc1 [Example 174, 1-{1-[4-(3-p-Toluenesulfonylaminopropoxy)benzoyl]-4-piperidinyl}-3,4-dihydrocarbostyril]	0.49
COCCCOc1cc(OC)ccc1C(=O)N1CCC(N2C(=O)CCc3ccccc32)CC1 [Example 66, 1-{1-[2-(3-Methoxypropoxy)-4-methoxybenzoyl]-piperidinyl}-3,4-dihydrocarbostyril]	0.41
CS(=O)(=O)N1CCN(CCCCOc2ccc(C(=O)N3CCC(N4C(=O)CCc5ccccc54)CC3)cc2)CC1 [Example 159, 1-{1-[4-[4-(4-Methylsulfonyl-1-piperazinyl)butoxy]benzoyl]-4-piperidinyl}-3,4-dihydrocarbostyril]	0.098
CN1CCN(CCCCOc2ccc(C(=O)N3CCC(N4C(=O)CCc5ccccc54)CC3)cc2)CC1 [Example 158, 1-{1-[4-[4-(4-Methyl-1-piperazinyl)butoxy]benzoyl]-4-piperidinyl}-3,4-dihydrocarbostyril.dioxalate]	0.1
COC1(CNCCCCCCOc2ccc(C(=O)N3CCC(N4C(=O)CCc5ccccc54)CC3)cc2)OCC(O)C(O)C1O (stereo not drawn) [Example 267, 1-{1-(4-[6-(N-(2-Methoxy-3,4,5-trihydroxytetrahydropyran-2-yl)methylamino)hexyloxy]benzoyl)-4-piperidinyl}-3,4-dihydrocarbostyril]	0.082
COC(=O)[C@H](CCCCNC(=O)OCc1ccccc1)NC(=O)CCCCCOc1ccc(C(=O)N2CCC(N3C(=O)CCc4ccccc43)CC2)cc1 [Example 165, 1-{1-[4-{5-[(5-Benzyloxycarbonylamino)-1-(S)-methoxycarbonyl]pentylaminocarbonylpentyloxy}benzoyl]-4-piperidinyl}-3,4-dihydrocarbostyril]	0.54
O=C(c1ccc(C(F)(F)F)cc1)N1CCC(N2C(=O)CCc3ccccc32)CC1 [Example 106, 1-[1-(4-Trifluoromethylbenzoyl)-4-piperidinyl]-3,4-dihydrocarbostyril]	0.7
O=C(CC12CC3CC(CC(C3)C1)C2)N1CCC(N2C(=O)CCc3ccccc32)CC1 [Example 115]	0.7
CN(C)c1ccc(S(=O)(=O)NCCCCCOc2ccc(C(=O)N3CCC(N4C(=O)CCc5ccccc54)CC3)cc2)cc1 [Example 258, 1-{1-(4-[5-(4-Dimethylaminophenylsulfonylamino)pentyloxy]benzoyl)-4-piperidinyl]-3,4-dihydrocarbostyril]	0.47

Same assay, conditions: [H]3-Arg-vasopressin 2×10^-10 M, rat liver plasma membrane, 37° C., 10 minutes, pH 8.0

Molecule	IC50 [µM]
CN(CC(O)CCCCOc1ccc(C(=O)N2CCC(N3C(=O)CCc4ccccc43)CC2)cc1)CC(O)c1ccccc1 (stereo not drawn) [Example 219, 1-{1-[4-(5-Hydroxy-6-[N-methyl-N-(2-hydroxy-4-phenylethyl)amino]hexyloxy)benzoyl]-4-piperidinyl}-3,4-dihydrocarbostyril]	0.06

Same assay, conditions: [H]3-Arg-vasopressin 2×10^-10 M, rat liver plasma membrane, 37° C., 10 minutes, pH 8.0; read-out: IC50

Molecule	IC50 [µM]
1-{1-[4-(6-(1-Methyl-5-oxo-3-morpholino)hexyloxy)benzoyl]-4-piperidinyl}-3,4-dihydrocarbostyril [Example 215]	0.17

Same assay, conditions: read-out: IC50

Molecule	IC50 [µM]
CCOc1ccc(C(=O)N2CCC(n3c(=O)ccc4ccc(F)cc43)CC2)c(OC)c1 [Example 151, 1-[1-(2-Methoxy-4-ethoxybenzoyl)-4-piperidinyl]-7-fluorocarbostyril]	0.16
